From patent US20230114177A1, “NOVEL DEUTERIUM-SUBSTITUTED PYRIMIDINE DERIVATIVE AND PHARMACEUTICAL COMPOSITION COMPRISING SAME” (ONCOBIX CO., LTD., priority 2019, published 2023)

Experiments:
[1] = Pharmacokinetic evaluation in rats; assay type: in vivo; conditions: single dose; for absolute absorption rate: compared with hydrogen-substituted reference substance (FIGS. 1 to 4)
Method: Pharmacokinetic tests were carried out in rats as follows for the compounds obtained from Examples 1 and 2 above and the compound of Example 2 in which deuterium was substituted with hydrogen (hydrogen-substituted reference substance).
After the test substances were prepared to 2.5 or 5 mg/mL using WFI (water for injection), the rats were administered as a single dose at a prescribed dose (10 mL/kg), and blood was collected at a predetermined time (0, 0.25, 0.5, 1, 2, 4, 6, 8, 10, 24 hours), and then plasma was separated. Analysis of the drug was carried out using HPLC (XBridge column C18, Waters, mobile phase of 0.1% formic acid:acetonitrile (30:70, %/%)) and MS/MS (ESI positive, MRM), and concentrations of 5, 50, 100, 500, 1,000, and 5,000 ng/ml were prepared and measured by mixing rat blank plasma and each commercial standard solution at a ratio of 9:1. In addition, QC sample preparations were prepared at concentrations of 100, 750, and 2,500 ng/ml by mixing rat blank plasma and QC standard solution in a 9:1 ratio. As for the pretreatment method, 100 μl of the plasma sample was transferred to a centrifuge tube, and 10 μl of the internal standard solution and 300 μl of methanol were added thereto, and then mixed for about 30 seconds. The tube was centrifuged for about 5 minutes at a rotation speed of 12,000 rpm (4° C.) using a centrifuge, and the supernatant was taken, transferred to an LC vial and then injected into the device. Thereafter, the concentration of the drug in rat plasma was quantified by applying the previously verified assay. For pharmacokinetic parameters, WinNonlin 5.2 (Pharsight, USA) program was used, and AUC0-t, AUC0-∞, Cmax, Tmax, and t1/2 were calculated by noncompartment modeling (best fit). Pharmacokinetic parameter results were expressed as mean and standard deviation (SD), and statistically processed using the SPSS program (Statistical Package for the Social Sciences, 10.0K, USA).

BaF3 (de119/T790M/C797S) = experiment: Measurement of inhibitory effect on cancer cell growth (GI50); assay type: cell-based; conditions: for GI50: Mus musculus, concentration to inhibit 50% of cell growth, BaF3 cells with EGFR de119/T790M/C797S; for activity against cancer cell lines expressing the C797S mutant epidermal growth factor receptor: summary in words of Table 1

Row | GI50 (BaF3 (de119/T790M/C797S)) [nM] | relative absorption rate compared to the hydrogen-substituted reference substance [1] [%] | Compound | absolute absorption rate [1] | activity against cancer cell lines expressing the C797S mutant epidermal growth factor receptor (BaF3 (de119/T790M/C797S))
1 | ≤ 500 |  | [2H]C([2H])([2H])N1CCN(C2CCN(c3ccc(Nc4ncc(Cl)c(Nc5ccccc5N(C)S(C)(=O)=O)n4)c(OC)c3)CC2)CC1 [Example 1, N-(2-((5-Chloro-2-((2-Methoxy-4-(4-(4-(Methyl-d3)Piperazin-1-Yl)Piperidin-1-Yl)Phenyl)Amino)Pyrimidin-4-Yl)Amino)Phenyl)-N-Methylmethanesulfonamide] | equivalent to or greater than the control drug | excellent activity
2 | ≤ 500 | 111.4 | [2H]C([2H])([2H])N(c1ccccc1Nc1nc(Nc2ccc(N3CCC(N4CCN(C)CC4)CC3)cc2OC)ncc1Cl)S(C)(=O)=O [Example 2] | equivalent to or greater than the control drug | excellent activity
3 | > 1000 |  | C=CC(=O)Nc1cc(Nc2nccc(-c3cn(C)c4ccccc34)n2)c(OC)cc1N(C)CCN(C)C [Osimertinib, osimertinib, reference compound] |  | poor activity
